From patent US11105794B2, “In vitro nephrotoxicity screening assay” (Hoffmann-La Roche Inc., priority 2016, dated 2021)

Tests used:
PTEC-TERT1 cells = experiment: EGF assay, supernatant of PTEC-TERT1 cells; settings: for Toxicity grade: from EGF, assay window saline vs toxic reference compound 4-1
Experimental: Prior to treatment with oligonucleotides the PTEC-TERT1 were seeded into collagen I-coated 96-well plates (Corning, 356407) at a density of 40 000 and 20 000 cells/well respectively in PTEC medium and grown until confluence.
Oligonucleotides were dissolved in PBS and added to the cell culture at the given concentration, such as 10, 30 or 100 μM. The total volume of each well was 100 μl. PBS served as vehicle control.
When extra cellular markers, like EGF and KIM-1, were analyzed following the oligonucleotide treatment the medium was collected and stored at −20° C. until further analysis. […] The collected medium was stored at −20° C.
For analysis of human EGF, cell supernatants were thawed on ice, diluted 1:2 and 1:10 in sample dilution buffer (BioRad catalog # M60-009RDPD) and analyzed by Luminex®-based ELISA using human EGF beads (Bio-Plex Pro™ Human Cancer Biomarker Panel 2 EGF Set#171BC603M), or followed by analysis using the Bio-Plex® 200 Systems (BioRad) according to the manufacturer's instructions. Data are reported as mean concentrations and standard deviations of triplicate wells.

A549 cells [1] = experiment: EGF assay, A549 cells transfected with oligonucleotide; type: cell-based, human; settings: A549, 48 hours after transfection;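 note: values as percent of saline control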
Experimental: (§1) A549 cells (ATCC CCL-185) were cultivated according to the manufacturer's instructions in A549 medium [F-12K Nut Mix (Gibco, 21127-022), 1% penicillin/streptomycin (Gibco: 15140-122), 10% FBS (Gibco 16000-044)].
(§2) Prior to treatment with oligonucleotides the A549 cells were seeded in 96 well plates at 3′000 cells per well in A549 regular medium and grown until 60% confluence. […]
(§3) A549 were cultivated as described in the “Materials and methods” section. At after at 50-60% confluence the oligonucleotides were transfected into the cells using 0.5 μl Lipofectamin (Invitrogen, 11668-019) in 25 μl OptiMEM® (GIBCO 31985062) and 1 ng or 10 ng oligonucleotide in the same volume OptiMEM. The cells were incubated over night at 37° C. The medium was changed using A459 regular medium+10 ng/ml EGF. 48 hours after transfection the medium was collected for EGF measurements and the cells were harvested for ATP measurements.

A549 cells [2] = experiment: Intracellular ATP assay, A549 cells transfected with oligonucleotide; type: cell-based, human; settings: A549, 48 hours after transfection;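 note: ATP as percent of saline control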
Experimental: as §1, §2
Each sample was tested in triplicate.
as §3

[3] = tested on: Primary human hepatocytes; experiment: EGF assay, culture media of primary human hepatocytes; type: cell-based; settings: 10 ng/ml EGF in medium;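 note: values as percent of saline vehicle control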
Experimental: Cryopreserved human hepatocytes were suspended in William's Medium E (WME) without phenol red (Sigma W-1878) supplemented with 10% fetal calf serum, penicillin (100 U/ml), streptomycin (0.1 mg/ml) at a density of approx. 1×10^6 cells/ml and seeded into collagen-coated 96-well plates (Becton Dickinson AG, Allschwil, Switzerland) at a density of 0.4×10^5 cells/well. Cells were pre-cultured for 3 to 4 h allowing for attachment to cell culture plates before start of treatment with oligonucleotides.
Before oligonucleotide treatment the seeding medium was replaced by 90 μl of serum free WME.
The total volume of each well was 100 μl. PBS served as vehicle control.
Human primary hepatocytes were cultivated as described in the “Materials and methods” section with addition of 10 ng/ml of EGF to the medium. At confluence the cells were treated with oligonucleotide as described in the “Materials and methods” section, in concentrations of 10 or 100 μM.
The medium was obtained at day 3, and the EGF level was measured according to the assay described in the “Materials and methods” section.

[4] = PTEC-TERT1, 6 days, 10 μM oligonucleotide (Table 7)
[5] = PTEC-TERT1, 6 days, 30 μM oligonucleotide (Table 7)
[6] = PTEC-TERT1, Day 6, 10 μM (Table 4)
[7] = PTEC-TERT1, Day 6, 30 μM (Table 4)
[8] = PTEC-TERT1, Day 6, 100 μM (Table 4)

Row | Substance | EGF (PTEC-TERT1 cells; [4]) [% saline] | Toxicity grade (PTEC-TERT1 cells; PTEC-TERT1, 6 days, 10 μM) | EGF (PTEC-TERT1 cells; [5]) [% saline] | Toxicity grade (PTEC-TERT1 cells; PTEC-TERT1, 6 days, 30 μM) | EGF (PTEC-TERT1 cells; [6]) [% saline] | EGF (PTEC-TERT1 cells; [7]) [% saline] | EGF (PTEC-TERT1 cells; [8]) [% saline] | other results
1 | ACTgcrtttcrcacrtCTG (antisense ACTGCTTTCCACTCTG; LNA gapmer, stereodefined phosphorothioates, chemistry not fully specified) [Compound 8-3] | 869 | 32 | 3416 | 46 |  |  |  | 
2 | ACTgcstttcscacstCTG (antisense ACTGCTTTCCACTCTG; LNA gapmer, stereodefined phosphorothioates, chemistry not fully specified) [Compound 8-2] | 5723 | 219 | 25199 | 347 |  |  |  | 
3 | ACTgctttccactCTG (ACTGCTTTCCACTCTG; chemistry not given here) [Compound 8-1] | 8412 | 323 | 15126 | 208 | 1153 | 1359 | 1545 | EGF (A549 cells [1]; 1 ng oligonucleotide): 140 % saline; EGF (A549 cells [1]; 10 ng oligonucleotide): 233 % saline; ATP (A549 cells [2]; 1 ng oligonucleotide): 101 % saline; ATP (A549 cells [2]; 10 ng oligonucleotide): 58 % saline
4 | ATTgcattgtttcCGT (ATTGCATTGTTTCCGT; chemistry not given here) [Compound 18-1] |  |  |  |  | 223 | 203 | 290 | 
5 | CAAaggaaacacaCAT (CAAAGGAAACACACAT; chemistry not given here) [Compound 6-1] |  |  |  |  | 78 | 90 | 118 | 
6 | CAAatgctgaaacTAT (CAAATGCTGAAACTAT; chemistry not given here) [Compound 7-1] |  |  |  |  | 37 | 40 | 67 | 
7 | CACattccttgctCTG (CACATTCCTTGCTCTG; chemistry not given here) [Compound 10-1] | 305 | 11 | 1283 | 17 | 73 | 330 | 783 | EGF ([3]; day 3, 10 μM): 145 % saline; EGF ([3]; day 3, 100 μM): 574 % saline
8 | CACattrccttrgctrCTrG (antisense CACATTCCTTGCTCTG; LNA gapmer, stereodefined phosphorothioates, chemistry not fully specified) [Compound 10-3] | 248 | 9 | 1740 | 23 |  |  |  | 
9 | CACattrcrcttrgrctCTG (antisense CACATTCCTTGCTCTG; LNA gapmer, stereodefined phosphorothioates, chemistry not fully specified) [Compound 10-5] | 369 | 13 | 1069 | 14 |  |  |  | 
10 | CACattsccttsgctsCTsG (antisense CACATTCCTTGCTCTG; LNA gapmer, stereodefined phosphorothioates, chemistry not fully specified) [Compound 10-2] | 93 | 3 | 156 | 1 |  |  |  | 
11 | CACattscscttsgsctCTG (antisense CACATTCCTTGCTCTG; LNA gapmer, stereodefined phosphorothioates, chemistry not fully specified) [Compound 10-4] | 60 | 1 | 157 | 1 |  |  |  | 
12 | CATtgcattgttTCCG (CATTGCATTGTTTCCG; chemistry not given here) [Compound 19-2] |  |  |  |  | 370 | 606 | 770 | 
13 | CATtgcattgtttCCG (CATTGCATTGTTTCCG; chemistry not given here) [Compound 19-1] |  |  |  |  | 317 | 310 | 413 | 
14 | CGTttgtgctcgATA (CGTTTGTGCTCGATA; chemistry not given here) [Compound 17-1] |  |  |  |  | 342 | 550 | 693 | 
15 | CGTttgtgctcgaTAA (CGTTTGTGCTCGATAA; chemistry not given here) [Compound 16-1] |  |  |  |  | 394 | 509 | 707 | 
16 | CTAtgtgttccTGT (CTATGTGTTCCTGT; chemistry not given here) [Compound 15-1] |  |  |  |  | 38 | 76 | 234 | 
17 | GCCtcccagttccTTT (GCCTCCCAGTTCCTTT; chemistry not given here) [Compound 9-1] |  |  |  |  | 220 | 284 | 1593 | 
18 | GTCagaaacaaccACC (GTCAGAAACAACCACC; chemistry not given here) [Compound 14-1] |  |  |  |  |  |  |  | EGF ([3]; day 3, 10 μM): 139 % saline; EGF ([3]; day 3, 100 μM): 220 % saline
19 | TAAggcaatcaagGTA (TAAGGCAATCAAGGTA; chemistry not given here) [Compound 5-1] |  |  |  |  |  |  |  | EGF (PTEC-TERT1 cells; PTEC-TERT1, Day 3, 11 μM (Table 3)): 174 % saline; EGF (PTEC-TERT1 cells; PTEC-TERT1, Day 3, 33 μM (Table 3)): 222 % saline; EGF (PTEC-TERT1 cells; PTEC-TERT1, Day 3, 100 μM (Table 3)): 182 % saline; EGF (PTEC-TERT1 cells; PTEC-TERT1, Day 7, 11 μM (Table 3)): 158 % saline; EGF (PTEC-TERT1 cells; PTEC-TERT1, Day 7, 33 μM (Table 3)): 249 % saline; EGF (PTEC-TERT1 cells; PTEC-TERT1, Day 7, 100 μM (Table 3)): 754 % saline; EGF (PTEC-TERT1 cells; PTEC-TERT1, Day 10, 11 μM (Table 3)): 54 % saline; EGF (PTEC-TERT1 cells; PTEC-TERT1, Day 10, 33 μM (Table 3)): 210 % saline; EGF (PTEC-TERT1 cells; PTEC-TERT1, Day 10, 100 μM (Table 3)): 720 % saline
20 | TGCtcaacatcAAG (TGCTCAACATCAAG; chemistry not given here) [Compound 11-1] |  |  |  |  | 38 | 127 | 371 | EGF ([3]; day 3, 10 μM): 184 % saline; EGF ([3]; day 3, 100 μM): 458 % saline
21 | TTAcacttgacCCA (TTACACTTGACCCA; chemistry not given here) [Compound 12-1] |  |  |  |  | 19 | 27 | 71 | 
22 | TTTacacttgaCCC (TTTACACTTGACCC; chemistry not given here) [Compound 13-1] |  |  |  |  | 27 | 29 | 39 | 
